# Measured values taken from patent publication US8173863B2, “Sucrose biosensors and methods of using the same” (Carnegie Institution of Washington, priority 2005, dated 2012).
# How the values were obtained:
# [1] = tested on: Alicyclobacillus acidocaldarius maltose uptake; settings: cited from earlier work
# [2] = biological target: Agrobacterium tumefaciens ThuE (AtThuE) sucrose binding protein carrying N192D (SEQ ID NO: 2) fused between ECFP and EYFP, sensor FLIPsuc4μ (FLIPsuc), wt (indic (Agrobacterium fabrum, UniProt A9CF11, N212D)); assay: in vitro FRET titration of purified sensor FLIPsuc4μ; settings: for Δratio (maximum ratio change): in vitro, no binding to saturated binding; for binding (extent relative to sucrose): 5× Kd (20 μM), FRET micro plate assay (FIG. 4); for affinity relative to that for sucrose: FIG. 1C titration curves; for recognition (binding): even after addition of higher sugar concentrations (50× Kd)
# Source text: (§1) Because the maltose/trehalose/sucrose binding protein from Agrobacterium tumefaciens (AtThuE) is 78.9% identical over predicted mature region of the SmThuE protein (SEQ ID NO: 2) and is 21.4% homologous to the maltose binding protein from E. coli (malE), we attempted to clone the AtThuE binding protein. To isolate the gene, a PCR product from genomic Agrobacterium tumefaciens (strain C58C1) DNA encoding mature AtThuE without signal sequence and stop codon was cloned into the KpnI site between ECFP and EYFP genes (FIG. 1A). The chimeric gene was inserted into pRSET (Invitrogen) and transferred to E. coli BL21(DE3)Gold (Stratagene). […] It is unknown whether this difference corresponds to a mutation or natural variation. Since N192D was outside the binding pocket and since AtThuE carrying the mutation was functional as a sugar sensor (see Table 1), all further experiments were carried out with the nanosensor named FLIPsuc4μ carrying the mutation N192D. FLIPsuc proteins were extracted from BL21(DE3)gold and purified as described (Fehr et al. 2002).
# (§2) A DNA fragment encoding the mature Agrobacterium tumefaciens maltose/trehalose/sucrose BP protein was fused between the ECFP and EYFP sequences as described above. The chimeric gene was expressed in E. coli and the protein product purified and assayed for substrate specificity.
# (§3) Substrate titration curves and substrate specificity analysis were performed on Safire (Tecan) fluorometer. ECFP was excited at 433 nm and emission was set to 485 nm and 528 nm for ECFP and EYFP, respectively (bandwidth 12 nm). All in vitro analyses were performed in 20 mM MOPS buffer at pH 7. FRET was determined as EYFP-ECFP emission intensity ratio. Using the change in ratio upon ligand binding, binding constants (Kd) were determined by fitting substrate titration curves to equation 1: S=1−(r−rmin)(rmax−rmin)=[S]b/[P]t=n[S]/(Kd+[S]), where [S] is substrate concentration; [S]b, concentration of bound substrate; n, number of binding sites; [P]t, total concentration of binding protein; r, ratio; rmin, minimum ratio in absence of ligand; rmax, maximum ratio at saturation. Hill coefficients were determined using Hill equation 2: S=(n[S]^n)/(Kd+[S]^n).
# (§4) SmThuE is mainly functioning as a trehalose and maltose binding protein. Sucrose is thought to be transported to a lesser extent. FLIPsuc4μ was therefore incubated with trehalose, maltose and other related sugars to test for its binding capacities. Substrate-induced conformational changes were measured using FRET in micro plate assays. […] Maltose and glucose were chosen for further analysis of FLIPsuc4μ and its mutants since they are important sugars in plants and might therefore interfere with sucrose measurements in vivo. […] Most mutants show similar patterns with higher affinity for maltose than sucrose. FLIPsuc-10μ is the most significant example with an 83 times higher affinity for maltose than sucrose (Table 1). The D115 mutants both show the highest affinity for maltose compared to sucrose and […], but to a different extent.
# [3] = biological target: Agrobacterium tumefaciens ThuE (AtThuE) sucrose binding protein carrying N192D (SEQ ID NO: 2) fused between ECFP and EYFP, sensor FLIPsuc4μ (FLIPsuc), wt (indicator SEQ ID NO: 4) (Agrobacterium fabrum, UniProt A9CF11, N212D); assay: as above
# Source text: as §1, §2, §3, §4
# [4] = biological target: Agrobacterium tumefaciens AtThuE sensor FLIPsuc4μ variant F113A (FLIPsuc10μ, FLIPsucF113A) (Agrobacterium fabrum, UniProt A9CF11, F133A/N212D); assay: in vitro FRET titration of affinity mutant FLIPsuc10μ; type: binding; settings: for Δratio (change in ratio): in vitro, no binding to saturated binding
# Description: as §3
# (§5) To expand the dynamic range of the sucrose sensor, site directed mutagenesis was used as described above to lower the binding affinity of the sucrose binding domain. Affinity mutants of FLIPsuc4μ were generated. Alignment together with modeling of AtThuE with maltose binding proteins that have been crystallized helped predict residues important for ligand binding. […] Mutant forms carrying substitutions F113A, D115A, D115E, D115N, W244A, Y246A and W283A were generated using Kunkel mutagenesis (Kunkel et al. 1991) in the mutant background of FLIPsuc41t. The affinity mutants were designated as FLIPsucF113A, FLIPsucW283A, FLIPsucD115A, FLIPsucD115E, FLIPsucY246A, and FLIPsucW244A. All six mutants have lower affinities for sucrose than that of FLIPsuc4μ, with a Kd value varying from 10 μM to the higher mM range (Table 1). The starting ratio between EYFP and ECFP ranges from 1.4 to close to 2.0, which is also similar to what has been seen in other sugar sensors (FLIPmal, FLIPglu and FLIPrib). Introducing substitution F113A into the ThuE moiety of FLIPsuc4μ produced FLIPsuc10μ, which has a binding constant (Kd) of 10 μM for sucrose, thus providing a range for sucrose quantification between at least 1 μM and 90 μM (Table 1).
# [5] = biological target: Agrobacterium tumefaciens AtThuE sensor FLIPsuc4μ variant W283A (FLIPsuc88μ, FLIPsucW283A) (Agrobacterium fabrum, UniProt A9CF11, N212D/W303A); assay: in vitro FRET titration of affinity mutant FLIPsuc88μ; type: binding; settings: for Kd / Δratio: in vitro; for Δratio: no binding to saturated binding
# Description: as §3, §5
# [6] = biological target: Agrobacterium tumefaciens AtThuE sensor FLIPsuc4μ variant D115A (FLIPsuc1m, FLIPsucD115A) (Agrobacterium fabrum, UniProt A9CF11, D135A/N212D); assay: in vitro FRET titration of affinity mutant FLIPsuc1m; type: binding; settings: for Δratio (delta ratio): no binding to saturated binding
# Description: as §3, §5
# [7] = biological target: Agrobacterium tumefaciens AtThuE sensor FLIPsuc4μ variant D115E (FLIPsuc3m, FLIPsucD115E) (Agrobacterium fabrum, UniProt A9CF11, D135E/N212D); assay: in vitro FRET titration of affinity mutant FLIPsuc3m; type: binding; settings: for Δratio (delta ratio): no binding to saturated binding
# Description: as §3, §5
# [8] = biological target: Agrobacterium tumefaciens AtThuE sensor FLIPsuc4μ variant Y246A (FLIPsuc15m, FLIPsucY246A) (Agrobacterium fabrum, UniProt A9CF11, N212D/Y266A); assay: in vitro FRET titration of affinity mutant FLIPsuc15m; type: binding; settings: for Δratio: in vitro, no binding to saturated binding
# Description: as §3, §5
# [9] = biological target: Agrobacterium tumefaciens AtThuE sensor FLIPsuc4μ variant W244A (FLIPsuc46m, FLIPsucW244A) (Agrobacterium fabrum, UniProt A9CF11, N212D/W264A); assay: in vitro FRET titration of affinity mutant FLIPsuc46m; type: binding; settings: for Δratio: in vitro, no binding to saturated binding
# Description: as §3, §5
# [10] = biological target: Agrobacterium tumefaciens AtThuE sensor FLIPsuc4μ variant D115N (Agrobacterium fabrum, UniProt A9CF11, D135N/N212D); assay: FRET ratio change of D115N mutant; type: binding
# Description: as §3
# To expand the dynamic range of the sucrose sensor, site directed mutagenesis was used as described above to lower the binding affinity of the sucrose binding domain. Affinity mutants of FLIPsuc4μ were generated. Alignment together with modeling of AtThuE with maltose binding proteins that have been crystallized helped predict residues important for ligand binding. […]
# [11] = biological target: Agrobacterium tumefaciens AtThuE sensor FLIPsucW283A with linker shortened by 18 amino acids (FLIPsucW283A-18AA, FLIPThuEW283A-18AA) (Agrobacterium fabrum, UniProt A9CF11, N212D/W303A); assay: FRET ratio change of short-linker sensor FLIPsucW283A-18AA; type: binding; settings: FIG. 3
# Description: as §3
# In an attempt to improve the delta ratio of the sucrose sensor the sensor containing the W283A mutation was cloned into a construct with a shorter linker sequence between the GFP variants and the binding protein. Deuschle et al. (2005) has shown that the length of the linker sequence plays a major role in the maximum change in ratio. A construct corresponding to FLIPglu600μΔ5 was constructed which gives a sucrose sensor whose linker was shortened by 18 amino acids (FLIPsucW283A-18AA). […]
# [12] = biological target: Alicyclobacillus acidocaldarius maltose binding protein (AaMalE); settings: cited from earlier work
# [13] = 20 mM MOPS pH 7, FRET titration
compound,measurement,setting,value
cyclodextrins,inhibition of uptake of radiolabeled maltose,[1],inhibited
OC[C@H]1O[C@@](CO)(O[C@H]2O[C@H](CO)[C@@H](O)[C@H](O)[C@H]2O)[C@@H](O)[C@@H]1O [sucrose],change in FRET on titration,"[2]; concentration-dependent, FIG. 1B",concentration-dependent decrease in FRET
same,Δratio (maximum ratio change),[2]; listed as Sucrose,0.18
same,Hill coefficient,"[2]; sucrose titration, pH 7",1.04
same,Kd,[3],3.7 µM
same,Kd,[4],10 µM
same,Δratio (change in ratio),[4],0.1-0.15
same,Δratio (change in ratio),[4]; listed as Sucrose,0.12
same,Kd,[5]; [13],88 µM
same,Δratio,[5],0.29
same,affinity for sucrose relative to maltose,[5]; ratio of Kd,three times higher than for maltose
same,Kd,[6]; [13],1350 µM
same,Kd,[6]; FRET titration,1400 µM
same,Δratio (delta ratio),[6],at least 0.6
same,Δratio (delta ratio),[6]; listed as Sucrose,0.68
same,Kd,[7]; [13],2870 µM
same,Kd,[7]; FRET titration,2900 µM
same,Δratio (delta ratio),[7],~0.4
same,Δratio (delta ratio),[7]; listed as Sucrose,0.36
same,Kd,[8],14600 µM
same,Δratio,[8],0.14
same,Kd,[9],46200 µM
same,Δratio,[9],0.4
same,change in ratio upon addition of sucrose,[10],no longer seen
same,ratio change relative to original construct (FLIPsucW283A),[11],3 fold
OC[C@H]1O[C@H](O[C@H]2[C@H](O)[C@@H](O)C(O)O[C@@H]2CO)[C@H](O)[C@@H](O)[C@@H]1O (some centres unmarked) [maltose],binding (extent relative to sucrose),[2],to the same extent or better than sucrose
same,affinity relative to that for sucrose,[2],higher
same,Δratio (maximum ratio change),[2],0.21
same,Kd,[3],0.23 µM
same,Kd,[4],0.12 µM
same,Δratio (change in ratio),[4],0.12
same,Kd,[5]; [13],265 µM
same,Δratio,[5],0.25
same,Kd,[6]; [13],51 µM
same,Δratio (delta ratio),[6],0.37
same,Kd,[7]; [13],1530 µM
same,Kd,[7]; FRET titration,1500 µM
same,Δratio (delta ratio),[7],0.39
same,Kd,[8],56 µM
same,Δratio,[8],0.14
same,Kd,[9],26500 µM
same,Δratio,[9],0.42
same,Kd,[12],1.5 µM
OC[C@H]1OC(O)[C@H](O)[C@@H](O)[C@H]1O (some centres unmarked) [galactose],recognition (binding),[2],not recognized
OC[C@H]1OC(O)[C@H](O)[C@@H](O)[C@@H]1O (some centres unmarked) [glucose],binding (extent relative to sucrose),[2],to lesser extent
same,affinity relative to that for sucrose,[2],in the same range as that for sucrose
same,Δratio (maximum ratio change),[2],0.18
same,Kd,[3],27 µM
same,Kd,[4],106 µM
same,Δratio (change in ratio),[4],0.12
same,Kd,[5]; [13],7210 µM
same,Kd,[5]; FRET titration,7200 µM
same,Δratio,[5],0.21
same,Kd,[6]; [13],16200 µM
same,Kd,[6]; FRET titration,16000 µM
same,Δratio (delta ratio),[6],0.50
same,Kd,[7]; [13],9110 µM
same,Kd,[7]; FRET titration,9100 µM
same,Δratio (delta ratio),[7],0.44
same,Kd,[8],554 µM
same,Δratio,[8],0.07
OC[C@H]1O[C@H](OC[C@H]2OC(O)(CO)[C@@H](O)[C@@H]2O)[C@H](O)[C@@H](O)[C@@H]1O (some centres unmarked) [palatinose],binding (extent relative to sucrose),[2],to lesser extent
C[C@H]1O[C@H](O[C@H]2[C@H](O)[C@@H](O)[C@@H](O[C@H]3[C@H](O)[C@@H](O)C(O)O[C@@H]3CO)O[C@@H]2CO)[C@H](O)[C@@H](O)[C@@H]1N[C@H]1C=C(CO)[C@@H](O)[C@H](O)[C@H]1O (some centres unmarked) [acarbose],inhibition of uptake of radiolabeled maltose,[1],inhibited
OC[C@H]1O[C@H](O[C@H]2[C@H](O)[C@@H](O)[C@@H](O[C@H]3[C@H](O)[C@@H](O)[C@@H](O[C@H]4[C@H](O)[C@@H](O)C(O)O[C@@H]4CO)O[C@@H]3CO)O[C@@H]2CO)[C@H](O)[C@@H](O)[C@@H]1O (some centres unmarked) [maltotetraose],inhibition of uptake of radiolabeled maltose,[1],inhibited
OC[C@H]1O[C@@H](O[C@H]2[C@H](O)[C@@H](O)C(O)O[C@@H]2CO)[C@H](O)[C@@H](O)[C@@H]1O (some centres unmarked) [cellobiose],recognition (binding),[2],not recognized
OCC1(O)OC[C@@H](O)[C@@H](O)[C@@H]1O (some centres unmarked) [Fructose],recognition (binding),[2],not recognized
OC[C@H]1O[C@H](O[C@H]2O[C@H](CO)[C@@H](O)[C@H](O)[C@H]2O)[C@H](O)[C@@H](O)[C@@H]1O [trehalose],binding (extent relative to sucrose),[2],to the same extent or better than sucrose
OC[C@H]1OC(O)(CO)[C@@H](O[C@H]2O[C@H](CO)[C@@H](O)[C@H](O)[C@H]2O)[C@@H]1O (some centres unmarked) [turanose],binding (extent relative to sucrose),[2],to the same extent or better than sucrose
